This note sets out measurements from PubChem BioAssay (NCI).

Some test systems named below: DLD-1 colon; DMS 273 small cell lung; HOP-18 NSCLC; KM20L2 colon; LXFL 529 NSCLC; M19-MEL melanoma; SNB-78 CNS; XF 498 CNS; RXF-631 renal.
Assay in all cases: growth of human tumour cells (NCI), 48 h

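Tested at 5 concentrations; 48 h exposure; 96-well plates; endpoints linearly interpolated, else capped at highest concentration. TGI denotes the concentration required for complete inhibition of growth.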

Regarding `COc1cc(CCCC(O)COc2cccc3c2C2(O)CCCCCC32)cc(OC)c1` (stereo not given), the TGI is 36.6 µM in the experiment on DLD-1 colon; 34.8 µM in the experiment with DMS 273 small cell lung; 33.1 µM in the experiment with HOP-18 NSCLC; 28.1 µM in the experiment with KM20L2 colon; 33.5 µM in the experiment with LXFL 529 NSCLC; 32.7 µM with M19-MEL melanoma. Also, the results for the TGI in the experiment on SNB-78 CNS and in the experiment with XF 498 CNS were 43.3 µM and 35.8 µM, respectively.

`CNC(=O)CN(CC(N)=O)C(=O)NC`: the TGI with DLD-1 colon, with DMS 273 small cell lung, in the experiment with KM20L2 colon, with LXFL 529 NSCLC, in the experiment on M19-MEL melanoma and with RXF-631 renal was above 100 µM each time. Besides, the TGI with SNB-78 CNS and in the experiment with XF 498 CNS was above 100 µM throughout.

Regarding `O=S1c2ccc(Cl)cc2CC(SSC2Cc3cc(Cl)ccc3S(=O)c3ccccc32)c2ccccc21` (stereo not given), the TGI with DLD-1 colon, in the experiment on DMS 273 small cell lung, in the experiment on HOP-18 NSCLC, in the experiment on KM20L2 colon, in the experiment with LXFL 529 NSCLC and in the experiment on M19-MEL melanoma was above 100 µM each time. Moreover, the TGI with RXF-631 renal and in the experiment on SNB-78 CNS was above 100 µM in each case.

Regarding `COC(=O)/C(=C/CC(N=C(c1ccccc1)c1ccccc1)C(=O)OC)N=C(c1ccccc1)c1ccccc1` (stereo not given), the TGI with DLD-1 colon, with DMS 273 small cell lung, with LXFL 529 NSCLC, in the experiment with M19-MEL melanoma and in the experiment with XF 498 CNS was above 100 µM each time.

For the compound `CN(CCO)c1nc2c(c(=O)[nH]1)CNCC2`, the TGI in the experiment with DLD-1 colon, in the experiment on DMS 273 small cell lung, in the experiment on HOP-18 NSCLC, in the experiment with KM20L2 colon, in the experiment with LXFL 529 NSCLC and in the experiment on M19-MEL melanoma was above 100 µM in each case. For the same compound, the TGI in the experiment on SNB-78 CNS and in the experiment with XF 498 CNS was above 100 µM in each case.

On to `COc1cc(-c2c(C)c(C)nc(OC)c2C#N)cc(OC)c1OC`, for which the TGI in the experiment on DLD-1 colon, in the experiment with HOP-18 NSCLC, in the experiment with KM20L2 colon, in the experiment on LXFL 529 NSCLC, in the experiment on M19-MEL melanoma and in the experiment with SNB-78 CNS was above 100 µM each time.

`Cn1c2cccc3nnc4cccc(c4c32)n1C`: the TGI in the experiment with DLD-1 colon, in the experiment on DMS 273 small cell lung, in the experiment on KM20L2 colon, with LXFL 529 NSCLC, with M19-MEL melanoma and with RXF-631 renal was above 100 µM in each case. Further, the TGI with SNB-78 CNS and in the experiment with XF 498 CNS was above 100 µM throughout.

With `CSC(=N)N1N=C2c3ccccc3CC[C@@H]2[C@@H]1c1ccccc1`, the TGI was found to be 31.7 µM in the experiment on DLD-1 colon; 28.5 µM in the experiment on DMS 273 small cell lung; 47.8 µM in the experiment on HOP-18 NSCLC; 25.6 µM with KM20L2 colon; 24.2 µM with LXFL 529 NSCLC; 29.4 µM in the experiment on M19-MEL melanoma. Further, in the experiment on XF 498 CNS, the TGI was found to be 30.6 µM.

As for `O=C1/C(=C/c2ccccc2)CCCC/C1=C\c1ccccc1`, the TGI in the experiment with DLD-1 colon, in the experiment on DMS 273 small cell lung, with HOP-18 NSCLC, in the experiment on KM20L2 colon, in the experiment on LXFL 529 NSCLC and in the experiment on M19-MEL melanoma was above 100 µM throughout. Besides, the TGI in the experiment on RXF-631 renal, with SNB-78 CNS and in the experiment with XF 498 CNS was above 100 µM each time.

For the compound `CCOC(=O)C1C(c2ccc([N+](=O)[O-])cc2)NC(c2ccc([N+](=O)[O-])cc2)C(C(=O)OC)S1(=O)=O` (stereo not given), the TGI in the experiment with DLD-1 colon, in the experiment on DMS 273 small cell lung, in the experiment on HOP-18 NSCLC, with KM20L2 colon, in the experiment on LXFL 529 NSCLC and with M19-MEL melanoma was above 100 µM each time. Moreover, the TGI in the experiment with SNB-78 CNS and with XF 498 CNS was above 100 µM each time.

In the case of `Cc1c(CCl)c(=O)oc2c(C)c3occ(CCl)c(=O)c3cc12`, the TGI in the experiment with HOP-18 NSCLC was 32 µM; in the experiment with KM20L2 colon, above 100 µM; in the experiment on LXFL 529 NSCLC it was 30.2 µM; in the experiment with M19-MEL melanoma, 30.3 µM; with RXF-631 renal it was 31.1 µM.
